Legend:
Focal adhesion kinase 1 [1] = biological target: T1, Focal adhesion kinase 1 (Homo sapiens, UniProt Q05397); assay: Inhibition of GST-tagged FAK assessed as inhibition of poly-Glu-Tyr phosphorylation by fluorescence polarization assay
Focal adhesion kinase 1 [2] = biological target: T1, Focal adhesion kinase 1
in vitro = conditions: human, liver microsomes
Description: Metabolic stability in human liver microsomes assessed as hepatic extraction ratio

[3] = biological target: Protein-tyrosine kinase 2-beta (Homo sapiens, UniProt Q14289)
Description: Inhibition of GST-tagged pyk2 assessed as inhibition of poly-Glu-Tyr phosphorylation

[4] = Oral bioavailability in rat; format: ADME, organism-based; conditions: in vivo

Sequence of Protein-tyrosine kinase 2-beta (Q14289 whole entry): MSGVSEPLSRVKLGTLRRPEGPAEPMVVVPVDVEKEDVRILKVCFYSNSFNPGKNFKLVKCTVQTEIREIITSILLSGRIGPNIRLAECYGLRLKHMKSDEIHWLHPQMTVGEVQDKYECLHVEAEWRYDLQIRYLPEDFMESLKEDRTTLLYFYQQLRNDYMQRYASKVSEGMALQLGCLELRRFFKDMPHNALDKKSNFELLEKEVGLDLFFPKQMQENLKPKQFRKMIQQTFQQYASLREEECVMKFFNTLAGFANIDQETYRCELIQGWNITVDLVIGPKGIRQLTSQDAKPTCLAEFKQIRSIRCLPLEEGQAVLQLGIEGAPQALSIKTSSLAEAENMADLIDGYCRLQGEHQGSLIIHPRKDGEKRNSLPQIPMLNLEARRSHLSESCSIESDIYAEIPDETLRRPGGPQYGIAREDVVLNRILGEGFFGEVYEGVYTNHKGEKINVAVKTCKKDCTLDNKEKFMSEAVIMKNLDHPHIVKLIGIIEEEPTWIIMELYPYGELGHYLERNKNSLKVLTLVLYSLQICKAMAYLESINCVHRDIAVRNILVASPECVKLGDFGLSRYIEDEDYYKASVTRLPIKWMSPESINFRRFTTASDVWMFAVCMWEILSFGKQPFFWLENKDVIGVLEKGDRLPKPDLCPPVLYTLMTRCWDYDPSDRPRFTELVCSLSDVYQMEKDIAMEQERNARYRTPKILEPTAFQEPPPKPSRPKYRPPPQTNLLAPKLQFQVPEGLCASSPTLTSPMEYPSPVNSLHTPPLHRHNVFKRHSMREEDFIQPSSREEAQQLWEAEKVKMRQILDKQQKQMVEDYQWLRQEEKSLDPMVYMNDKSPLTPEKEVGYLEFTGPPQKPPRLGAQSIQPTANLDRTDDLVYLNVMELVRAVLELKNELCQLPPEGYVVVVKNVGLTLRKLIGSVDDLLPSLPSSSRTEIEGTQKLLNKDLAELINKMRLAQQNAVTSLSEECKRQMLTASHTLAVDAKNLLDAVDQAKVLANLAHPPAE
T1 sequence (Q05397 whole entry): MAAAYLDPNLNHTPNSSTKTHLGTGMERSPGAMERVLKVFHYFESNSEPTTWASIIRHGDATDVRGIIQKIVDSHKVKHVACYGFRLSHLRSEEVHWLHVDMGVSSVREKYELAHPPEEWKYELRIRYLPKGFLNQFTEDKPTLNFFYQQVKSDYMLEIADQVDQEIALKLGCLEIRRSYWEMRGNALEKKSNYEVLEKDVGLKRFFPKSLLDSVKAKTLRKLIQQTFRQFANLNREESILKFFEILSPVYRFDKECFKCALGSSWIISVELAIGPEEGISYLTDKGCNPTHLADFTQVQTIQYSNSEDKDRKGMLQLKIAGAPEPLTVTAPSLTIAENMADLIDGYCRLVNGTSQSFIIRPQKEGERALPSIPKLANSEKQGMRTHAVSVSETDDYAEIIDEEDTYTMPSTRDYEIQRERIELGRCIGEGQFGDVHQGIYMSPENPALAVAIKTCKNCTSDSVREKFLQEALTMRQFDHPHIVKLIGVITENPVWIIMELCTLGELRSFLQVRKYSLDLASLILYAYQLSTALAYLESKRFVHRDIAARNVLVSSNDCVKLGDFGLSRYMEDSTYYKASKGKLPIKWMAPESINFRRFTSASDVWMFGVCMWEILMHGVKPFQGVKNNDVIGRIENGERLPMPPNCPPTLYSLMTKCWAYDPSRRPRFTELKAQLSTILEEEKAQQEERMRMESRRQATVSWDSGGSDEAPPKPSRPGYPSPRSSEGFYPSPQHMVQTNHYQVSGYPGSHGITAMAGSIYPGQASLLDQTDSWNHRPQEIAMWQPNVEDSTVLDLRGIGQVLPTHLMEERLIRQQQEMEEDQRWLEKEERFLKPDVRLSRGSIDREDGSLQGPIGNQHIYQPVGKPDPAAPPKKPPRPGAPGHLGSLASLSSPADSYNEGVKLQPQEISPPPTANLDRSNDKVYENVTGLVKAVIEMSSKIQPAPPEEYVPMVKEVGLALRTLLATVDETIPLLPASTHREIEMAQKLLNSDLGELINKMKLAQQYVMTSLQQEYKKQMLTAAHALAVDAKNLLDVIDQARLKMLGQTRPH

| IC50 (Focal adhesion kinase 1 [1]) | hepatic extraction ratio (in vitro) | bioavailability [4] | Structure (SMILES) | IC50 (Focal adhesion kinase 1 [2]) | IC50 [3] |
| --- | --- | --- | --- | --- | --- |
| 6900 nM | 0.48 |  | CN(C)[C@@H]1CCC[C@H]1Nc1nc(Nc2ccncc2)ncc1C(F)(F)F | 4100 nM |  |
|  | < 0.26 |  | CN(C)[C@@H]1CCC[C@H]1Nc1nc(Nc2ccc3c(c2)CS(=O)(=O)N3)ncc1C(F)(F)F | > 650 nM | 50 nM |
| 4000 nM | 0.66 |  | CN(C)C(=O)c1cccc(Nc2ncc(C(F)(F)F)c(N[C@@H]3CCC[C@H]3N(C)C)n2)c1 | 3900 nM |  |
|  | 0.66 |  | CCN(CC)C(=O)c1ccc(Nc2ncc(C(F)(F)F)c(N[C@@H]3CCC[C@H]3N(C)C)n2)cc1 | 3300 nM |  |
|  |  | < 5% | Cn1ccc2cc(Nc3ncc(C(F)(F)F)c(NCc4ccccn4)n3)ccc21 |  |  |
|  |  | < 5% | FC(F)(F)c1cnc(Nc2ccc3[nH]ncc3c2)nc1NCc1ccccn1 |  |  |
|  | < 0.3 |  | Cc1cnc(Nc2ccc3c(c2)CC(=O)N3)nc1NCc1ccccn1 | 2200 nM | > 3000 nM |
|  | 0.41 |  | CN(C)[C@@H]1CCC[C@H]1Nc1nc(Nc2ccn3ccnc3c2)ncc1C(F)(F)F |  |  |

The remaining lines, values behind:

| Structure (SMILES) | IC50 (Focal adhesion kinase 1 [1]) | hepatic extraction ratio (in vitro) | bioavailability [4] | IC50 (Focal adhesion kinase 1 [2]) | IC50 [3] |
| --- | --- | --- | --- | --- | --- |
| O=C1Cc2cc(Nc3ncc(C(F)(F)F)c(NCc4ccccc4)n3)ccc2N1 |  | < 0.26 |  | 34 nM | 120 nM |
| O=C1Cc2cc(Nc3nccc(NCc4ccccn4)n3)ccc2N1 |  | < 0.26 |  | > 10000 nM | > 10000 nM |
| O=C1CCCc2cc(Nc3ncc(C(F)(F)F)c(NC4CCC4)n3)ccc2N1 |  |  |  |  | 33 nM |
| CS(=O)(=O)c1cccc(CNc2nc(Nc3ccc4c(c3)CC(=O)N4)ncc2C(F)(F)F)c1 |  | 0.35 |  | 9 nM | > 1100 nM |
| CS(=O)(=O)c1ccccc1CNc1nc(Nc2ccc3c(c2)CC(=O)N3)ncc1C(F)(F)F |  | 0.55 |  | 59 nM | 15 nM |
| CN(c1ccccc1CNc1nc(Nc2ccc(S(C)(=O)=O)cc2)ncc1C(F)(F)F)S(C)(=O)=O |  | 0.93 |  | 0.94 nM | 35 nM |
| O=C1Cc2cc(Nc3ncc(Cl)c(NCc4ccccn4)n3)ccc2N1 |  | < 0.28 |  | 77 nM | > 1000 nM |
| CN(c1cccc(CNc2nc(Nc3ccc4c(c3)CC(=O)N4)ncc2C(F)(F)F)c1)S(C)(=O)=O |  | 0.59 |  | 1.9 nM | 190 nM |

From ChEMBL document CHEMBL1152158, “Trifluoromethylpyrimidine-based inhibitors of proline-rich tyrosine kinase 2 (PYK2): structure-activity relationships and strategies for the elimination of reactive metabolite formation” (Bioorg Med Chem Lett, 2008)
